#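 1) Cells in 96-well plates. 2) Compound, 48 h, 5 concentrations. 3) Linear interpolation between surrounding doses. 4) Unreached endpoint = highest concentration. At the GI50, growth is halved. TGI: total growth inhibition.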
# Experiments:
# Assay in all cases: DTP human tumour cell line panel, 48 h
# [1] = tested on: A498 renal
# [2] = tested on: A549 NSCLC
# [3] = tested on: MALME-3M melanoma
# [4] = tested on: MCF7 breast
# [5] = tested on: OVCAR-4 ovarian
# [6] = tested on: SN12C renal
# [7] = tested on: SNB-75 CNS
# [8] = tested on: U251 CNS
# [9] = tested on: UACC-257 melanoma
# [10] = tested on: UACC-62 melanoma
SMILES,GI50 [1],TGI [1],GI50 [2],TGI [2],GI50 [3],TGI [3],GI50 [4],TGI [4],GI50 [5],TGI [5],GI50 [6],TGI [6],GI50 [7],TGI [7],GI50 [8],TGI [8],GI50 [9],TGI [9],GI50 [10],TGI [10]
COc1ccc2c3c(c4ccccc4cc13)C(=O)N(CCN(C)CCN)C2=O,0.393 µM,1.73 µM,0.0113 µM,0.243 µM,0.0799 µM,1.27 µM,0.0133 µM,1.1 µM,0.299 µM,1.7 µM,0.0562 µM,0.911 µM,0.166 µM,1.37 µM,0.0776 µM,1.21 µM,0.483 µM,17.4 µM,0.077 µM,1.56 µM
O=C1NC(=O)C(c2ccc(Cl)cc2)=C1Nc1ccc(Cl)c(C(=O)O)c1,> 25 µM,> 25 µM,> 25 µM,> 25 µM,> 25 µM,> 25 µM,> 25 µM,> 25 µM,> 25 µM,> 25 µM,> 25 µM,> 25 µM,> 25 µM,> 25 µM,> 25 µM,> 25 µM,> 25 µM,> 25 µM,> 25 µM,> 25 µM
O=C(Nc1ccc2[nH]c(C(=O)N3CC(CCl)c4c3cc([N+](=O)[O-])c3ccccc43)cc2c1)c1cc2ccccc2o1 (stereo unspecified),> 1100 µM,> 1100 µM,> 1100 µM,> 1100 µM,> 1100 µM,> 1100 µM,> 1100 µM,> 1100 µM,> 1100 µM,> 1100 µM,> 1100 µM,> 1100 µM,,,> 1100 µM,> 1100 µM,> 1100 µM,> 1100 µM,> 1100 µM,> 1100 µM
O=C(NCCCCCCNC(=O)n1cc(F)c(=O)[nH]c1=O)NCCCOCCOCCOCCOCCOCCOCCOCCOCCOCCOCCOCCOCCOCCOCCOCCOCCOCCOCCOCCOCCOCCCNC(=O)C(O)C(O)C(OC1OC(CO)C(O)C(O)C1O)C(O)CO (stereo unspecified),,> 100 µM,,> 100 µM,,> 100 µM,,> 46.8 µM,,> 100 µM,,> 100 µM,,> 43.7 µM,,> 100 µM,,> 100 µM,,> 100 µM
C[n+]1c2ccccc2c(Nc2ccc(NS(=O)(=O)CCCCN=C(N)N)cc2)c2ccc(N)cc21,0.32 µM,31.4 µM,< 0.0128 µM,16 µM,4.06 µM,35.2 µM,0.0429 µM,> 81.2 µM,5.4 µM,> 100 µM,0.0443 µM,> 100 µM,1.48 µM,> 100 µM,0.22 µM,54 µM,21.7 µM,> 95.6 µM,0.917 µM,22.4 µM
COc1ccc2nc(NCN3C(=O)c4ccccc4C3=O)sc2c1,,> 100 µM,,> 100 µM,,> 100 µM,,> 100 µM,,> 100 µM,,> 100 µM,,> 100 µM,,> 100 µM,,> 100 µM,,> 100 µM
COc1ccc(SC2c3ccc(C)cc3Oc3nc(N)c(C#N)c(N)c32)cc1 (stereo unspecified),1.91 µM,3.44 µM,2.19 µM,4.21 µM,1.68 µM,3.13 µM,1.95 µM,4.72 µM,1.66 µM,3.15 µM,,,1.46 µM,3.21 µM,1.81 µM,3.22 µM,1.99 µM,3.49 µM,1.6 µM,2.99 µM
